The results in this text go back to patent US11072602B2, “Antidiabetic heterocyclic compounds” (Merck Sharp & Dohme Corp., priority 2016, dated 2021).

The structures appear in SMILES notation. Bounds are passed on as bounds.

In the first experiment the target is T1, human GPR40 (Homo sapiens, UniProt O14842).
T1 construct: expressed in transfected cells
T1 sequence (O14842 whole entry): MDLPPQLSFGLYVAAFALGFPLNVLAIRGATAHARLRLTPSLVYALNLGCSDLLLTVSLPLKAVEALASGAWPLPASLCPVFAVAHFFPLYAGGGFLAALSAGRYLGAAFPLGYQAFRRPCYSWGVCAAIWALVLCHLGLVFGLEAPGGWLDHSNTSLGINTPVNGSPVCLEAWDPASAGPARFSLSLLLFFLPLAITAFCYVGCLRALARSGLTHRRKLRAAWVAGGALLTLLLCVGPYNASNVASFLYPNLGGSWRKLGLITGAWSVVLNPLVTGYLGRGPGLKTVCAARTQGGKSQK
Briefly: Inositol Phosphate Turnover (IP1) Assay 2. It is filed as cell-based. The settings on record: HEK cells stably expressing human GPR40, 15,000 cells per well, CisBio IP-One kit; read-out: Human IP1 (nM); Inositol Phophate Turnover (IP1) Assay 2 EC50 values. The protocol:
(§1) Human GPR40 stable cell-lines were generated in HEK cells. The expression plasmids were transfected using lipofectamine (Life Technologies) following manufacturer's instructions. Stable cell-lines were generated following drug selection and single cell cloning.
The assay is performed in 384-well format. HEK cells stably expressing human GPR40 are plated at 15,000 cells per well in growth medium (DMEM/10% fetal calf serum). Cell plates are then incubated 16 hours at 37 degrees in a 5% CO2 incubator.
Measurement of Inositol Phosphate Turnover (IP1) is performed using the CisBio IP-One kit (Part number 62IPAPEB). After the 16 hour incubation, the cells are washed with HEPES buffer and 10 ul of stimulation buffer (prepared as described in the kit) is added to each well. In a separate plate, compounds are diluted in DMSO (400-fold over the final concentration in the assay well) and 25 nl is acoustically transferred to the appropriate well in the assay cell plate. The plates are then incubated for 60 minutes at 37 degrees. 10 ul of detection buffer (also prepared as described in the IP-One kit) is added to each well and the plates are incubated for 60 minutes in the dark. The plates are then read in a Perkin Elmer EnVision or equivalent reader able to measure FRET. Fluorescent ratio of emission at 665 and 620 nm is then converted to IP1 concentration by back calculating from an IP1 standard curve prepared at the time of the assay.
`C[C@H](C(=O)O)[C@H](c1ccc2c(c1)OC(C1CC3(C1)CN(c1ncccc1C(F)(F)F)C3)CC2)C1CC1` (single isomer, unassigned) [Example 1, (2S,3R)-3-cyclopropyl-2-methyl-3-((R or S)-2-(2-(3-(trifluoro-methyl)pyridin-2-yl)-2-azaspiro[3.3]heptan-6-yl)chroman-7-yl)propanoic Acid]: the EC50 stood at 141 nM. The same measure, in the same setting: next, `C[C@H](C(=O)O)[C@H](c1ccc2c(c1)OC(C1CC3(C1)CN(c1ncccc1C(F)(F)F)C3)CC2)C1CC1` (single isomer, unassigned) [Example 2, (2S,3R)-3-cyclopropyl-2-methyl-3-((R or S)-2-(2-(3-(trifluoromethyl)pyridin-2-yl)-2-azaspiro[3.3]heptan-6-yl)chroman-7-yl)propanoic Acid]: 156 nM.

Still in this experiment, the particulars now being: HEK cells stably expressing human GPR40; read-out: EC50 values in the Inositol Phophate Turnover (IP1) Assay 2.
In the case of `C[C@H](C(=O)O)[C@H](c1ccc2c(c1)OC(C1CC3(C1)CN(c1ncccc1C(F)(F)F)C3)CC2)C1CC1` (single isomer, unassigned) [Example 1, (2S,3R)-3-cyclopropyl-2-methyl-3-((R or S)-2-(2-(3-(trifluoro-methyl)pyridin-2-yl)-2-azaspiro[3.3]heptan-6-yl)chroman-7-yl)propanoic Acid], the EC50 is < 6500 nM.

Another experiment deals with T1, human GPR40. Briefly: Inositol Phosphate Turnover (IP1) Assay. It is filed as cell-based. The settings on record: HEK cells stably expressing human GPR40, 7500 cells per well, CisBio IP-One kit. The protocol:
as §1
The assay was performed in 384-well format. HEK cells stably expressing human GPR40 were plated at 7500 cells per well in growth medium (DMEM/10% fetal calf serum). Cell plates were then incubated 16 hours at 37 degrees in a 5% CO2 incubator. Measurement of Inositol Phosphate Turnover (IP1) was performed using the CisBio IP-One kit (Part number 62IPAPEB). After the 16 hour incubation, the growth media was removed by centrifugation using the BlueWasher (AusWasher GUI Ver. v1.0.1.8) Protocol #21-“Light Dry” and 10 ul of stimulation buffer (prepared as described in the kit) was added to each well. In a separate plate, compounds were diluted in DMSO (200-fold over the final concentration in the assay well) and 50 nl was acoustically transferred to the appropriate well in the assay cell plate. The plates were then incubated for 60 minutes at 37 degrees in a 5% CO2 incubator. 10 ul of detection buffer (also prepared as described in the IP-One kit) was added to each well and the plates were incubated at room temperature for 60 minutes in the dark. The plates were then read in a Perkin Elmer EnVision or equivalent reader able to measure FRET. Fluorescent ratio of emission at 665 and 620 nm was then converted to IP1 concentration by back calculating from an IP1 standard curve prepared at the time of the assay. Data was normalized to % activity using a reference compound and EC50s determined using a standard 4-parameter fit.
With `CC(c1cc(Cl)ccc1C(F)(F)F)N1C[C@H]2CC1CC2C1CCc2ccc([C@H](C3CC3)[C@H](C)C(=O)O)cc2O1` (single isomer, unassigned) [Example 36, (2S,3R)-3-((S or R)-2-((R or S, R or S)-2-(1-(5-chloro-2-(trifluoromethyl)-phenyl)-ethyl)-2-azabicyclo[2.2.1]heptan-5-yl)chroman-7-yl)-3-cyclopropyl-2-methylpropanoic Acid], the EC50 was 0.0123 µM. The same measure, in the same setting: next, `CC(c1cc(F)ccc1OC(F)(F)F)N1CC2CC1CC2C1CCc2ccc([C@H](C3CC3)[C@H](C)C(=O)O)cc2O1` (single isomer, unassigned) [Example 37, (2S,3R)-3-cyclopropyl-3-((R or S)-2-((R or S,R or S)-2-((RS)-1-(5-fluoro-2-(trifluoro-methoxy)-phenyl)ethyl)-2-aza-bicyclo[2.2.1]heptan-5-yl)-chroman-7-yl)-2-methyl-propanoic acid]: 0.0714 µM; `C[C@H](C(=O)O)[C@H](c1ccc2c(c1)OC(C13CCN([C@H](C)c4cc(F)ccc4OC(F)(F)F)C(C1)C3)CC2)C1CC1` (single isomer, unassigned) [Example 43]: 0.0606 µM. Compound `C[C@H](C(=O)O)[C@H](c1ccc2c(c1)OC(C13CCN([C@H](C)c4cc(F)ccc4OC(F)(F)F)C(C1)C3)CC2)C1CC1` (single isomer, unassigned) [Example 44] came in with an EC50 of 0.00214 µM.

As for `C[C@H](C(=O)O)[C@H](c1ccc2c(c1)OC(C1C3COCC1CN([C@H](C)c1cc(C(F)(F)F)ccc1C(F)(F)F)C3)CC2)C1CC1` (stereo partly drawn) [Example 3, (2S,3R)-3-(2-((1R,5S)-7-((R)-1-(2,5-bis(trifluoromethyl)phenyl)ethyl)-3-oxa-7-azabicyclo[3.3.1]nonan-9-yl)chroman-7-yl)-3-cyclopropyl-2-methylpropanoic acid], the EC50 was 0.0203 µM.

Regarding `C[C@H](C(=O)O)[C@H](c1ccc2c(c1)OC(C1C3COCC1CN([C@H](C)c1cc(C(F)(F)F)ccc1C(F)(F)F)C3)CC2)C1CC1` (stereo partly drawn) [Example 4, (2S,3R)-3-(2-((1R,5S)-7-((R)-1-(2,5-bis(trifluoromethyl)phenyl)ethyl)-3-oxa-7-azabicyclo[3.3.1]nonan-9-yl)chroman-7-yl)-3-cyclopropyl-2-methylpropanoic acid], the EC50 was determined as 0.0366 µM. `C[C@H](C(=O)O)[C@H](c1ccc2c(c1)OC(C1C3COCC1CN([C@@H](C)c1cc(C(F)(F)F)ccc1C(F)(F)F)C3)CC2)C1CC1` (stereo partly drawn) [Example 5, (2S,3R)-3-(2-((1R,5S)-7-((S)-1-(2,5-bis(trifluoro-methyl)phenyl)ethyl)-3-oxa-7-azabicyclo[3.3.1]-nonan-9-yl)chroman-7-yl)-3-cyclopropyl-2-methyl-propanoic acid] came in with an EC50 of 0.0338 µM.

In the case of `C[C@H](C(=O)O)[C@H](c1ccc2c(c1)OC(C1C3COCC1CN([C@@H](C)c1cc(C(F)(F)F)ccc1C(F)(F)F)C3)CC2)C1CC1` (stereo partly drawn) [Example 6, (2S,3R)-3-(2-((1R,5S)-7-((S)-1-(2,5-bis(trifluoro-methyl)phenyl)ethyl)-3-oxa-7-azabicyclo[3.3.1]-nonan-9-yl)chroman-7-yl)-3-cyclopropyl-2-methyl-propanoic acid], the EC50 amounted to 0.0215 µM. Same read-out and setting: with `C[C@H](C(=O)O)[C@H](c1ccc2c(c1)OC(C1CC3CCC(C1)N3[C@@H](C)c1cc(C(F)(F)F)ccc1C(F)(F)F)CC2)C1CC1` (stereo partly drawn) [Example 13, (2S,3R)-3-(2-((1R5S)-8-((S)-1-(2,5-bis(trifluoromethyl)phenyl)ethyl)-8-azabicyclo[3.2.1]octan-3-yl)chroman-7-yl)-3-cyclopropyl-2-methylpropanoic Acid] the figure was 0.0119 µM; with `C[C@H](C(=O)O)[C@H](c1ccc2c(c1)OC(C1CC3CCC(C1)N3[C@H](C)c1cc(C(F)(F)F)ccc1C(F)(F)F)CC2)C1CC1` (stereo partly drawn) [Example 14, (2S,3R)-3-(2-((1R,5S)-8-((R)-1-(2,5-bis(trifluoro-methyl)phenyl)ethyl)-8-azabicyclo[3.2.1]octan-3-yl)chroman-7-yl)-3-cyclopropyl-2-methyl-propanoic acid], 0.0111 µM; with `C[C@H](C(=O)O)[C@H](c1ccc2c(c1)OC(C1CC3CCC(C1)N3[C@H](C)c1cc(F)ccc1C(F)(F)F)CC2)C1CC1` (stereo partly drawn) [Example 15, (2S,3R)-3-cyclopropyl-3-(2-((1R,5S)-8-((R)-1-(5-fluoro-2-(trifluoromethyl)-phenyl)ethyl)-8-aza-bicyclo[3.2.1]octan-3-yl)chroman-7-yl)-2-methylpropanoic acid], 0.0175 µM. Consider `C[C@H](C(=O)O)[C@H](c1ccc2c(c1)OC(C1C[C@@H]3C[C@@H]1CN3[C@@H](C)c1cc(C(F)(F)F)ccc1C(F)(F)F)CC2)C1CC1` (stereo partly drawn) [Example 16, (2S,3R)-3-(2-((1S,4S)-2-((S)-1-(2,5-bis(trifluoromethyl)phenyl)ethyl)-2-aza-bicyclo-[2.2.1]heptan-5-yl)chroman-7-yl)-3-cyclopropyl-2-methylpropanoic Acid], for which the EC50 was 0.00128 µM. For `C[C@H](C(=O)O)[C@H](c1ccc2c(c1)OC(C1CC3CC1CN3[C@H](C)c1cc(C(F)(F)F)ccc1C(F)(F)F)CC2)C1CC1` (stereo partly drawn) [Example 17, (2S,3R)-3-(2-((1S,4S)-2-((R)-1-(2,5-bis(trifluoromethyl)-phenyl)ethyl)-2-azabicyclo-[2.2.1]heptan-5-yl)chroman-7-yl)-3-cyclopropyl-2-methyl-propanic acid], the EC50 amounted to 0.000687 µM. On the same count and under the same terms, with `C[C@H](C(=O)O)[C@H](c1ccc2c(c1)OC(C1CC3CC1CN3[C@@H](C)c1cc(F)ccc1C(F)(F)F)CC2)C1CC1` (stereo partly drawn) [Example 18, (2S,3R)-3-cyclopropyl-3-(2-((1S,4S)-2-((S)-1-(5-fluoro-2-(trifluoromethyl)phenyl)ethyl)-2-azabicyclo[2.2.1]heptan-5-yl)chroman-7-yl)-2-methyl-propanoic acid] the figure was 0.0042 µM; with `C[C@H](C(=O)O)[C@H](c1ccc2c(c1)OC(C1CC3CC1CN3[C@@H](C)c1cc(F)ccc1C(F)(F)F)CC2)C1CC1` (stereo partly drawn) [Example 19, (2S,3R)-3-cyclopropyl-3-(2-((1S,4S)-2-((S)-1-(5-fluoro-2-(trifluoromethyl)phenyl)ethyl)-2-azabicyclo[2.2.1]heptan-5-yl)chroman-7-yl)-2-methyl-propanic acid], 0.00262 µM.

The compound `C[C@H](C(=O)O)[C@H](c1ccc2c(c1)OC(C1CC3C[C@@H]1CN3[C@@H](C)c1cc(F)ccc1C(F)(F)F)CC2)C1CC1` (stereo partly drawn) [Example 38, (2S,3R)-3-cyclopropyl-3-(2-((4S)-2-((S)-1-(5-fluoro-2-(trifluoromethyl)phenyl)ethyl)-2-azabicyclo[2.2.1]heptan-5-yl)chroman-7-yl)-2-methyl-propanoic acid] came in with an EC50 of 0.0106 µM.

With `C[C@H](C(=O)O)[C@H](c1ccc2c(c1)OC(C13CCN([C@@H](C)c4cc(F)ccc4OC(F)(F)F)C(C1)C3)CC2)C1CC1` (some centres unmarked) [Example 42], the EC50 was determined as 0.00209 µM.
